These results are taken from patent US20250280826A1, “PLANT GROWTH PROMOTER” (KAO CORPORATION, priority 2022, published 2025).

One assay relates to soybean. The assay can be described thus: Example 2: soybean nodule activity (ureide in exudate) one week after foliar spray. Format: in vivo. As to the method: Medium-term fertilizer effect type culture soil (Takii hydrous cell medium-term fertilizer effect type, Takii & Co., Ltd.) and vermiculite grains (Akagi-Engei Co., Ltd.) were mixed at a volume ratio of 1:1, and the soil was placed in a polypot (diameter: 10.5 cm, height: 9 cm). The soybean seeds used were “Enrei” (purchased from Nikko Seed Co. Ltd.). After tap water was supplied in an amount of 250 mL per pot, 2 seeds per pot were each sown at a depth of from about 1 to 2 cm from the soil surface. The number of repeats in each test plot was 6 (n=6).
1.5% agar (Wako Pure Chemical Industries, Ltd.) was added to Yeast-Mannitol (YM) medium (0.5 g of K2HPO4, 0.2 g of MgSO4-7H2O, 0.1 g of NaCl, 0.4 g of yeast extract, 10 g of mannitol, and 1 L of distilled water (pH: 6.8)) to prepare a solid medium, and a soybean Rhizobium (Bradyrhizobium japonicum) NBRC14783T strain was grown on the solid medium. A platinum loop of the grown Rhizobium was taken and inoculated in 50 mL of YM liquid medium in a Sakaguchi flask with a volume of 500 mL, and shake-cultured at 30° C. for about 36 hours. […]
Exudate components contained in the cotton balls were eluted with ultrapure water and filtered using Micro Biospin chromatography column (Bio-Rad Laboratories, Inc.). […] The 1 000-fold diluted filtrate was quantified. […]

Another assay has as its system azuki bean. The assay can be described thus: Example 6: initial growth index in azuki bean (above-/below-ground part dry weight). The class given is in vivo. As to conditions: ascorbic acid 1 500 mass ppm, tap water vs deionized water. Here is the method:
Medium-term fertilizer effect type culture soil (Takii hydrous cell medium-term fertilizer effect type, Takii & Co., Ltd.) and vermiculite grains (Akagi-Engei Co., Ltd.) were mixed at a volume ratio of 1:1, and the soil was placed in a polypot (diameter: 10.5 cm, height: 9 cm). The azuki bean seeds used were “Tamba Dainagon Azuki Beans” (purchased from Takii & Co., Ltd.). After tap water was supplied in an amount of 250 mL per pot, 2 seeds per pot were each sown at a depth of from about 1 to 2 cm from the soil surface. The number of repeats in each test plot was 6 (n=6). […]
Spraying solutions were prepared, and 6.7 mL of each per plant was sprayed only once using a mister on day 21 after sowing. […] The evaluated test plots 1 to 4 are as follows.
On day 28 after sowing, the plant body was dried at 90° C. for 24 hours, and the above-ground part dry weight and below-ground part dry weight of the plant body were then measured. • 1 plot: control (no application) • 2 plot: foliar spray of 1 500 mass ppm ascorbic acid (dissolved in tap water) • 3 plot: foliar spray of 1 500 mass ppm ascorbic acid (dissolved in deionized water) • 4 plot: foliar spray of 1 500 mass ppm ascorbic acid+1 mass ppm BHT+50 mass ppm isobutyl alcohol+350 mass ppm sorbitan monolaurate (dissolved in tap water)

On to `O=C1O[C@H]([C@@H](O)CO)C(O)=C1O` [ascorbic acid, (R)-3,4-dihydroxy-5-((S)-1,2-dihydroxyethyl)furan-2(5H)-one], for which the nodule activity entry with soybean (ascorbic acid 1,500 ppm dissolved in deionized water, soybean early growth stage) was “increased”. In addition, in the assay on soybean (ascorbic acid 1,500 ppm dissolved in tap water), the “application effect of ascorbic acid (nodule activity)” value is “tended to decrease”. The “effects on the initial growth index” value with azuki bean is listed as “varied in accordance with the water quality”.
